The data set has as its target T1, human TLR9 (Homo sapiens, UniProt Q9NR96).
T1 construct: HA; host or cells: 293XL-hTLR9-HA (HEK293)
T1 sequence (Q9NR96 26-1032): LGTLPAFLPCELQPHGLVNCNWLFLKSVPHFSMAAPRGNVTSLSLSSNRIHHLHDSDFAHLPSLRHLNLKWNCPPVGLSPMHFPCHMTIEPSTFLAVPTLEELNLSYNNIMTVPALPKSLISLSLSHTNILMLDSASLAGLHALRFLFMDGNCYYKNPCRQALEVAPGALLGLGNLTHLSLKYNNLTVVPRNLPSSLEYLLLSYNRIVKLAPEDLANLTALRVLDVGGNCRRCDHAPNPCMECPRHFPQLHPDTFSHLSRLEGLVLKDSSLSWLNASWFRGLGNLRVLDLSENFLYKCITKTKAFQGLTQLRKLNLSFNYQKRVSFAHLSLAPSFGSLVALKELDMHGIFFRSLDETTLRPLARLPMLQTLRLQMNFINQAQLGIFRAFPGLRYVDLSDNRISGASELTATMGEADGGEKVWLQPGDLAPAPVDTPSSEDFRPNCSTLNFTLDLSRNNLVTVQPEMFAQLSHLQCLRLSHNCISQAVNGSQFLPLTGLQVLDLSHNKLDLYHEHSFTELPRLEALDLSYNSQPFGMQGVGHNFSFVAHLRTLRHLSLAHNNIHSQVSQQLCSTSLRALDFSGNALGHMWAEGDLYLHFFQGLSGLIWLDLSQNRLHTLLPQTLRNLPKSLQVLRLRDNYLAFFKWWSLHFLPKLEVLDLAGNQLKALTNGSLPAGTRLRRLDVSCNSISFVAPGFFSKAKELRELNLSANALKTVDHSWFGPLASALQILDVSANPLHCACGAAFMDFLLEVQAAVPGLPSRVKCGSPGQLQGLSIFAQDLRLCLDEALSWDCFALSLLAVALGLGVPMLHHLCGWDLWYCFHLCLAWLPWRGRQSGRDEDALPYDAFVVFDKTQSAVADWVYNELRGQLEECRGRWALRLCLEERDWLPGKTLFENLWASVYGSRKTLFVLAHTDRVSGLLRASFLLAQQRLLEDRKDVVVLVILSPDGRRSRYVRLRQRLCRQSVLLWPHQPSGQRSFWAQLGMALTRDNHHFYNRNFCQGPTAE
The data set can be described thus: HEK-TLR9 NF-κB-luciferase reporter, ODN2006 stimulation. Format: cell-based. The following applies: for TLR9 100 nM (averaged NF-κB-Luciferase level relative to ODN2006 condition): ASO 100 nM; for TLR9 100 nM (averaged NF-κB-Luciferase level relative to ODN2006 condition) / TLR9 500 nM (averaged NF-κB-Luciferase level relative to ODN2006 condition): relative to ODN2006 only, given as fraction; for TLR9 500 nM (averaged NF-κB-Luciferase level relative to ODN2006 condition): ASO 500 nM; for TLR9-500 nM: averaged NF-κB-Luciferase relative to ODN2006: 500 nM ASO 45 min, then 200 nM ODN2006 overnight, percentage of ODN2006 only. (In a reporter assay the amount or activity of a reporter protein is the signal.)

In the oligonucleotide strings, read from the 5' end, every base follows the letter of its sugar. An asterisk marks phosphorothioate; unmarked linkages are phosphodiester. Other units and linkages are bracketed, terminal groups are in braces. A string of capitals states the bases alone. d = 2'-deoxy (DNA); m = 2'-O-methyl

“CGGCCTCGGAAGCTCT (antisense; LNA-modified, pattern not given here) [MB21D1-168 LNA V1]”: the “TLR9 100 nM (averaged NF-κB-Luciferase level relative to ODN2006 condition)” value is 0.218 and the “TLR9 500 nM (averaged NF-κB-Luciferase level relative to ODN2006 condition)” value amounted to 0.116. In the same order, the values of “GCACTTCAGTCTGAGC (antisense; LNA-modified, pattern not given here) [MB21D1-719 LNA KL]” are 0.673 and 0.144. Turning to “AGGTCTTGGCTTCGTG (antisense; LNA-modified, pattern not given here) [MB21D1-524 LNA V1]”, the “TLR9 100 nM (averaged NF-κB-Luciferase level relative to ODN2006 condition)” value is recorded as 0.975 and the “TLR9 500 nM (averaged NF-κB-Luciferase level relative to ODN2006 condition)” value is given as 0.383. As to “ATGGCCTCCCATCTCC (antisense; LNA-modified, pattern not given here) [HPRT LNA-330 V1]”, the “TLR9 100 nM (averaged NF-κB-Luciferase level relative to ODN2006 condition)” value is given as 0.511 and the “TLR9 500 nM (averaged NF-κB-Luciferase level relative to ODN2006 condition)” value is reported as 0.244. On to “ACGTTCAGTCCTGTCC (antisense; LNA-modified, pattern not given here) [HPRT LNA-294 V1]”, for which the “TLR9 100 nM (averaged NF-κB-Luciferase level relative to ODN2006 condition)” value was 0.427 and the “TLR9 500 nM (averaged NF-κB-Luciferase level relative to ODN2006 condition)” value amounted to 0.198.

With “GTCAAGGGCATATCCT (antisense; LNA-modified, pattern not given here) [HPRT LNA-732 KL]”, the “TLR9 100 nM (averaged NF-κB-Luciferase level relative to ODN2006 condition)” value came to 0.844 and the “TLR9 500 nM (averaged NF-κB-Luciferase level relative to ODN2006 condition)” value was 0.387. As to “TTCAGGCGCTGCCTTG (antisense; LNA-modified, pattern not given here) [CAMSAP1-2709 LNA V1]”, the “TLR9 100 nM (averaged NF-κB-Luciferase level relative to ODN2006 condition)” value came out at 1.202 and the “TLR9 500 nM (averaged NF-κB-Luciferase level relative to ODN2006 condition)” value is given as 0.494.

For “AGGACTCCAGATGTTT (antisense; LNA-modified, pattern not given here) [HPRT LNA pos cont]”, the “TLR9 100 nM (averaged NF-κB-Luciferase level relative to ODN2006 condition)” value is recorded as 0.816 and the “TLR9 500 nM (averaged NF-κB-Luciferase level relative to ODN2006 condition)” value was 0.511.

Take “GATGGCCTCCCATCTC (antisense; LNA-modified, pattern not given here) [HPRT LNA-331 V1]”: the “TLR9 100 nM (averaged NF-κB-Luciferase level relative to ODN2006 condition)” value is reported as 1.033 and the “TLR9 500 nM (averaged NF-κB-Luciferase level relative to ODN2006 condition)” value was 0.476.

As to “TCCATACCCAAGGCAT (antisense; LNA-modified, pattern not given here) [CTNN2B-2446 LNA V1]”, the “TLR9 100 nM (averaged NF-κB-Luciferase level relative to ODN2006 condition)” value worked out at 1.075 and the “TLR9 500 nM (averaged NF-κB-Luciferase level relative to ODN2006 condition)” value is listed as 0.951. As for “TGACTGTCTTGAGGGT (antisense; LNA-modified, pattern not given here) [MB21D1-1483 LNA KL]”, the “TLR9 100 nM (averaged NF-κB-Luciferase level relative to ODN2006 condition)” value was 1.245 and the “TLR9 500 nM (averaged NF-κB-Luciferase level relative to ODN2006 condition)” value was determined as 0.290. In the same order, the values of “GGTCATTACAATAGCT (antisense; LNA-modified, pattern not given here) [HPRT LNA-475 KL]” are 0.438 and 0.604. Turning to “mA*mG*mU*mG*mG*C*A*C*A*T*A*C*C*A*C*mA*mC*mC*mC*mU (AGUGGCACATACCACACCCU; antisense; sugars from the 5' end m5 d10 m5, all phosphorothioate, methylation of C not given here) [[CDKN2B-AS1]495]”, for the setting “HEK-TLR9”, the “TLR9-500 nM: averaged NF-κB-Luciferase relative to ODN2006” value came out at 86.07%. In the case of “CCACTTGGCAGACCAT (antisense; LNA-modified, pattern not given here) [CTNN2B-1575 LNA V1]”, the “TLR9 100 nM (averaged NF-κB-Luciferase level relative to ODN2006 condition)” value is listed as 1.112 and the “TLR9 500 nM (averaged NF-κB-Luciferase level relative to ODN2006 condition)” value turned out to be 0.111. As for “ACTTCGTGGGGTCCTT (antisense; LNA-modified, pattern not given here) [HPRT LNA-663 V1]”, the “TLR9 100 nM (averaged NF-κB-Luciferase level relative to ODN2006 condition)” value is on record as 0.377 and the “TLR9 500 nM (averaged NF-κB-Luciferase level relative to ODN2006 condition)” value is 0.377. As for “CCAGCAGGTCAGCAAA (antisense; LNA-modified, pattern not given here) [HPRT LNA-388 KL]”, the “TLR9 100 nM (averaged NF-κB-Luciferase level relative to ODN2006 condition)” value came out at 0.736 and the “TLR9 500 nM (averaged NF-κB-Luciferase level relative to ODN2006 condition)” value came to 0.149. In the same order, the values of “GACTATACGCGCAATA (antisense; LNA-modified, pattern not given here) [NC5 LNA PS 3-10-3]” are 0.784 and 0.403. As to “CCACATCCTGTGGCTC (antisense; LNA-modified, pattern not given here) [CAMSAP1-2906 LNA V1]”, the “TLR9 100 nM (averaged NF-κB-Luciferase level relative to ODN2006 condition)” value is reported as 0.338 and the “TLR9 500 nM (averaged NF-κB-Luciferase level relative to ODN2006 condition)” value is 0.337. “TGTCTGGAAGCTTCCT (antisense; LNA-modified, pattern not given here) [CTNN2B-808 LNA V1]”: the “TLR9 100 nM (averaged NF-κB-Luciferase level relative to ODN2006 condition)” value was found to be 1.320 and the “TLR9 500 nM (averaged NF-κB-Luciferase level relative to ODN2006 condition)” value was determined as 0.648. On to “mU*mA*mU*mU*mU*C*C*A*C*A*T*G*C*C*C*mA*mG*mU*mG*mU (mU*mA*mU*mU*mU*dC*dC*dA*dC*dA*dT*dG*dC*dC*dC*mA*mG*mU*mG*mU; antisense) [[CDKN2B-AS1]627]”, for which, for the setting “HEK-TLR9”, the “TLR9-500 nM: averaged NF-κB-Luciferase relative to ODN2006” value was 71.20%. Turning to “CTTGGCTTCGTGGAGC (antisense; LNA-modified, pattern not given here) [MB21D1-520 LNA V1]”, the “TLR9 100 nM (averaged NF-κB-Luciferase level relative to ODN2006 condition)” value turned out to be 0.596 and the “TLR9 500 nM (averaged NF-κB-Luciferase level relative to ODN2006 condition)” value stood at 0.371.

On to “GTCTTCATCGGCCCTG (antisense; LNA-modified, pattern not given here) [CAMSAP1-2113 LNA V1]”, for which the “TLR9 100 nM (averaged NF-κB-Luciferase level relative to ODN2006 condition)” value is on record as 0.797 and the “TLR9 500 nM (averaged NF-κB-Luciferase level relative to ODN2006 condition)” value worked out at 0.617. In the same order, the values of “AGGCCCTTCGCACTTC (antisense; LNA-modified, pattern not given here) [EGFR-1225 LNA V1]” are 0.576 and 0.211.

For the substance “TCTTCATCGGCCCTGC (antisense; LNA-modified, pattern not given here) [CAMSAP1-2112 LNA V1]”, the “TLR9 100 nM (averaged NF-κB-Luciferase level relative to ODN2006 condition)” value is listed as 0.921 and the “TLR9 500 nM (averaged NF-κB-Luciferase level relative to ODN2006 condition)” value is 0.445.

“ACACTTCGTGGGGTCCTTTT (antisense; 2'-MOE modified, pattern not given here) [HPRT-663 MOE]”: the “inhibition of TLR9, 2′MOE ASOs (in words)” value (HEK-TLR9, 100 nM MOE ASO 45 min, 200 nM ODN2006 (FIG. 30)) was “stronger inhibitor than 664/665 and 666 ASOs”. The “TLR9 100 nM” value (MOE-modified ASO at 100 nM, averaged NF-κB-Luciferase relative to ODN2006 condition) turned out to be 0.114. Besides, the “TLR9 500 nM” value (MOE-modified ASO at 500 nM, averaged NF-κB-Luciferase relative to ODN2006 condition) is reported as 0.226. Regarding “GGTCTTGGCTTCGTGG (antisense; LNA-modified, pattern not given here) [MB21D1-523 LNA V1]”, the “TLR9 100 nM (averaged NF-κB-Luciferase level relative to ODN2006 condition)” value was found to be 0.658 and the “TLR9 500 nM (averaged NF-κB-Luciferase level relative to ODN2006 condition)” value was found to be 0.417. Consider “TCCTTGCACGTGGCTT (antisense; LNA-modified, pattern not given here) [EGFR-1014 LNA V1]”, for which the “TLR9 100 nM (averaged NF-κB-Luciferase level relative to ODN2006 condition)” value is 1.152 and the “TLR9 500 nM (averaged NF-κB-Luciferase level relative to ODN2006 condition)” value stood at 1.027. On to “AGTGTTGAGATACTCG (antisense; LNA-modified, pattern not given here) [EGFR-3652 LNA KL]”, for which the “TLR9 100 nM (averaged NF-κB-Luciferase level relative to ODN2006 condition)” value was found to be 0.982 and the “TLR9 500 nM (averaged NF-κB-Luciferase level relative to ODN2006 condition)” value worked out at 0.540. As for “mA*mA*mG*mC*mA*G*T*C*T*C*C*A*T*G*T*mC*mC*mC*mA*mG (mA*mA*mG*mC*mA*dG*dT*dC*dT*dC*dC*dA*dT*dG*dT*mC*mC*mC*mA*mG; antisense) [[CDKN2B-AS1]2236]”, for the setting “HEK-TLR9”, the “TLR9-500 nM: averaged NF-κB-Luciferase relative to ODN2006” value is given as 69.71%. With “TACTTTCCGAGGTGTC (antisense; LNA-modified, pattern not given here) [CAMSAP1-1739 LNA KL]”, the “TLR9 100 nM (averaged NF-κB-Luciferase level relative to ODN2006 condition)” value was found to be 0.915 and the “TLR9 500 nM (averaged NF-κB-Luciferase level relative to ODN2006 condition)” value is reported as 0.356.

The values are drawn from patent publication US20240384268A1, “Oligonucleotides” (Hudson Institute of Medical Research, priority 2021, published 2024).
